The source of these data is patent publication US20240417410A1, “TRICYCLIC COMPOUNDS FOR THE TREATMENT OF CANCER” (Hoffmann-La Roche Inc., priority 2023, published 2024).

One experiment deals with AGS cells (KRAS G12D). Description: Cell viability assay (Cell Counting Kit-8, 3-day). The class given is cell-based, human. Particulars: Homo sapiens, 72 h, 72 hrs incubation. An outline of the steps:
(§1)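 Seed NCI-H358 5,000/well, AGS and SW620 2,000/well; overnight. Compound, 0.5% DMSO final, 72 hrs. CCK-8 2 hrs, OD450–OD650. IC50: 4-parameter fit.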
(Tetrazolium dyes change colour on reduction, which living cells bring about.)

In a further experiment the test system is SW620 cells (KRAS G12V). Kind of experiment: Cell viability assay (Cell Counting Kit-8, 3-day). The class given is cell-based, human. Particulars: Homo sapiens, SW-620; SW620, 72 hrs incubation. The method, boiled down:
as §1

The test system of experiment [1] is NCI-H358 cells (KRAS G12C). Description: Cell viability assay (Cell Counting Kit-8, 3-day). The class given is cell-based, human. Particulars: Homo sapiens, NCI-H358, 72 h, NCI-H358, 72 hrs incubation. The method, boiled down:
as §1

Experiment [2] has as its system phosphorylation of ERK, KRAS G12D in AGS cells. Description: pERK inhibition assay. The class given is cell-based. Conditions: Homo sapiens, AGS, 4 h. An outline of the steps: (§2)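 NCI-H358 (KRAS G12C), AGS (G12D) and SW620 (G12V) cells plated overnight, then treated with compound for 4 h in 0.5% DMSO. After fixing and methanol permeabilisation, phospho-ERK was detected by in-cell ELISA (HRP/TMB, OD450). IC50 from a 4-parameter sigmoidal fit.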

Experiment [3] relates to phosphorylation of ERK, KRAS G12V in SW620. Description: pERK inhibition assay. It is filed as cell-based. Conditions: Homo sapiens, SW-620, 4 h, SW620 cells. An outline of the steps: as §2
Experiment [4] has as its system phosphorylation of ERK, KRAS G12C in NCI-H358 cells. Description: pERK inhibition assay. It is filed as cell-based. Conditions: Homo sapiens, NCI-H358, 4 h. An outline of the steps:
as §2

The next experiment concerns the target KRAS G12C-BRAF complex (Homo sapiens (Human), UniProt P01116+P62937, G12C). Kind of experiment: KRAS-BRAF with CYPA (500 nM) interaction assay (TR-FRET, Example 136). Particulars: KRAS G12C-BRAF disruption. The class given is biochemical.

Sequence of KRAS G12C-BRAF complex (P01116-2 other isoform, or with tags, fused parts or gaps G12C): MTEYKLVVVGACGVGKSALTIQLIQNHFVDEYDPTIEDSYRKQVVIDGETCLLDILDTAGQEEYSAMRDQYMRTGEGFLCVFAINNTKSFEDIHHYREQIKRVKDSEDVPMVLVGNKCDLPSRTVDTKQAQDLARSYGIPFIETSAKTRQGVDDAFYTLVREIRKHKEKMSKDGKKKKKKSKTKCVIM
Sequence of KRAS G12C-BRAF complex (P62937 whole entry): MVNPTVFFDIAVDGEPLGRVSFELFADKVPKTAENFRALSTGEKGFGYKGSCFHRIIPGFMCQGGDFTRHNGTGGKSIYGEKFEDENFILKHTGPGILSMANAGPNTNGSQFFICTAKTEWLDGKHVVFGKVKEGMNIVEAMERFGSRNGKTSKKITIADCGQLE

Consider `CO[C@@H](C)c1ncc(N2CCN(C)CC2)cc1-c1c2c3cc(cc4c3n1CCO4)-c1csc(n1)C[C@H](NC(=O)[C@H]1[C@@H]3COC[C@@H]31)C(=O)N1CCC[C@H](N1)C(=O)OCC(C)(C)C2` (atropisomer, axis not shown; (M)) [Example 35, (1S,5R,6r)-N-[(7S,13S)-(20M)-20-[2-[(1S)-1-methoxyethyl]-5-(4-methylpiperazin-1-yl)-3-pyridyl]-17,17-dimethyl-8,14-dioxo-15,24-dioxa-4-thia-9,21,30,31-tetrazahexacyclo[23.3.1.1^2,5.1^9,13.0^19,27.0^21,26]hentriaconta-1 (28),2,5 (31), 19,25 (29),26-hexaen-7-yl]-3-oxabicyclo[3.1.0]hexane-6-carboxamide], for which the IC50 with AGS cells (KRAS G12D) is 13 nM; in the experiment with SW620 cells (KRAS G12V), 1 nM; in experiment [1], 4.3 nM; in experiment [2], 4.7 nM; in experiment [3], less than 0.6 nM; in experiment [4], 1 nM. The IC50 at KRAS G12C-BRAF complex is 14.5 nM.
For the compound `CO[C@@H](C)c1ncc(N2CCOCC2)cc1-c1c2c3cc(cc4c3n1CCC4)-c1csc(n1)C[C@H](NC(=O)[C@H]1C[C@@H]1c1cccnc1)C(=O)N1CCC[C@H](N1)C(=O)OCC(C)(C)C2` (atropisomer, axis not shown; (M)) [Example 89, (1S,2S)-N-[(7S,13S)-(20M)-20-[2-[(1S)-1-methoxyethyl]-5-morpholino-3-pyridyl]-17,17-dimethyl-8,14-dioxo-15-oxa-4-thia-9,21,30,31-tetrazahexacyclo[23.3.1.1^2,5.1^9,13.0^19,27.0^21,26]hentriaconta-1 (28),2,5 (31), 19,25 (29),26-hexaen-7-yl]-2-(3-pyridyl)cyclopropanecarboxamide], the IC50 in the experiment with AGS cells (KRAS G12D) was found to be 6 nM; in the experiment with SW620 cells (KRAS G12V) it was 0.3 nM; in experiment [1], 1.5 nM; in experiment [2], 4.8 nM; in experiment [3], 0.4 nM; in experiment [4], 0.6 nM. In addition, the IC50 on KRAS G12C-BRAF complex was 6 nM.
Turning to `CO[C@@H](C)c1ncc(N2CCOCC2)cc1-c1c2c3cc(cc4c3n1C[C@@H](O)C4)-c1csc(n1)C[C@H](NC(=O)[C@H]1[C@H](C)[C@@H]1C)C(=O)N1CCC[C@H](N1)C(=O)OCC(C)(C)C2` (atropisomer, axis not shown; (M)) [Example 107, (1r,2R,3S)-N-[(7S,13S,23S)-23-hydroxy-(20M)-20-[2-[(1S)-1-methoxyethyl]-5-morpholino-3-pyridyl]-17,17-dimethyl-8,14-dioxo-15-oxa-4-thia-9,21,30,31-tetrazahexacyclo[23.3.1.1^2,5.1^9,13.0^19,27.0^21,26]hentriaconta-1 (28),2,5 (31),19,25 (29),26-hexaen-7-yl]-2,3-dimethyl-cyclopropanecarboxamide], the IC50 with AGS cells (KRAS G12D) is 5.4 nM; in the experiment on SW620 cells (KRAS G12V) it was 1.2 nM; in experiment [1] it was 8.4 nM; in experiment [2] it was 7.4 nM; in experiment [3], 1.5 nM; in experiment [4], 2.7 nM. Half-maximal inhibition against KRAS G12C-BRAF complex (IC50) required 47.6 nM.
In the case of `CO[C@@H](C)c1ncc(N2CCN(C)CC2)cc1-c1c2c3cc(cc4c3n1CCC4)-c1csc(n1)C[C@H](NC(=O)[C@H]1C[C@@H]1c1cnccn1)C(=O)N1CCC[C@H](N1)C(=O)OCC(C)(C)C2` (atropisomer, axis not shown; (M)) [Example 99, (1S,2S)-N-[(7S,13S)-(20M)-20-[2-[(1S)-1-methoxyethyl]-5-(4-methylpiperazin-1-yl)-3-pyridyl]-17,17-dimethyl-8,14-dioxo-15-oxa-4-thia-9,21,30,31-tetrazahexacyclo[23.3.1.1^2,5.1^9,13.0^19,27.0^21,26]hentriaconta-1 (28),2,5 (31), 19,25 (29),26-hexaen-7-yl]-2-pyrazin-2-yl-cyclopropanecarboxamide], the IC50 came out at 7.8 nM in the experiment on AGS cells (KRAS G12D); 0.4 nM in the experiment with SW620 cells (KRAS G12V); 2.1 nM in experiment [1]; 1.9 nM in experiment [2]; 0.4 nM in experiment [3]; 0.5 nM in experiment [4]. Further, the IC50 at KRAS G12C-BRAF complex worked out at 12.6 nM.
In the case of `CO[C@@H](C)c1ncc(N2CCN(C)CC2)cc1-c1c2c3cc(cc4c3n1CC(C)(C)C4)-c1csc(n1)C[C@H](NC(=O)[C@H]1[C@H](C)[C@@H]1C)C(=O)N1CCC[C@H](N1)C(=O)OCC(C)(C)C2` (atropisomer, axis not shown; (M)) [Example 69, (1r,2S,3R)-N-[(7S,13S)-(20M)-20-[2-[(1S)-1-methoxyethyl]-5-(4-methylpiperazin-1-yl)-3-pyridyl]-17,17,23,23-tetramethyl-8,14-dioxo-15-oxa-4-thia-9,21,30,31-tetrazahexacyclo[23.3.1.1^2,5.1^9,13.0^19,27.0^21,26]hentriaconta-1 (28),2,5 (31), 19,25 (29),26-hexaen-7-yl]-2,3-dimethyl-cyclopropanecarboxamide], the IC50 in the experiment on AGS cells (KRAS G12D) was 75.4 nM; in the experiment with SW620 cells (KRAS G12V), 4.4 nM; in experiment [1] it was 19.2 nM; in experiment [2], 11.3 nM; in experiment [3] it was 1.5 nM; in experiment [4], 1.5 nM. The compound further yielded an IC50 against KRAS G12C-BRAF complex of 35.7 nM.
For `CO[C@@H](C)c1ncc(N2CCN(C)CC2)cc1-c1c2c3cc(cc4c3n1CCC4)-c1csc(n1)C[C@H](NC(=O)[C@@H]1C[C@H]1C1CC1)C(=O)N1CCC[C@H](N1)C(=O)OCC(C)(C)C2` (atropisomer, axis not shown; (M)) [Example 16, (1R,2S)-2-cyclopropyl-N-[(7S,13S)-(20M)-20-[2-[(1S)-1-methoxyethyl]-5-(4-methylpiperazin-1-yl)-3-pyridyl]-17,17-dimethyl-8,14-dioxo-15-oxa-4-thia-9,21,30,31-tetrazahexacyclo[23.3.1.1^2,5.1^9,13.0^19,27.0^21,26]hentriaconta-1 (28),2,5 (31),19,25 (29),26-hexaen-7-yl]cyclopropanecarboxamide], the IC50 worked out at 25.9 nM in the experiment with AGS cells (KRAS G12D); 1.6 nM with SW620 cells (KRAS G12V); 7.3 nM in experiment [1]; 2.6 nM in experiment [2]; 2.8 nM in experiment [3]; 4.6 nM in experiment [4]. The compound further displayed an IC50 against KRAS G12C-BRAF complex of 10.2 nM.
In the case of `CO[C@@H](C)c1ncc(N2CCN3CCOC[C@@H]3C2)cc1-c1c2c3cc(cc4c3n1CCC4)-c1csc(n1)C[C@H](NC(=O)[C@H]1[C@@H]3COC[C@@H]31)C(=O)N1CCC[C@H](N1)C(=O)OCC(C)(C)C2` (atropisomer, axis not shown; (M)) [Example 40, (1S,5R,6r)-N-[(7S,13S)-(20M)-20-[5-[(9αS)-3,4,6,7,9,9a-hexahydro-1H-pyrazino[2,1-c][1,4]oxazin-8-yl]-2-[(1S)-1-methoxyethyl]-3-pyridyl]-17,17-dimethyl-8,14-dioxo-15-oxa-4-thia-9,21,30,31-tetrazahexacyclo[23.3.1.1^2,5.1^9,13.0^19,27.0^21,26]hentriaconta-1 (28),2,5 (31),19,25 (29),26-hexaen-7-yl]-3-oxabicyclo[3.1.0]hexane-6-carboxamide], the IC50 in the experiment on AGS cells (KRAS G12D) was 11.8 nM; in the experiment with SW620 cells (KRAS G12V), 0.8 nM; in experiment [1] it was 3 nM; in experiment [2] it was 5.6 nM; in experiment [3], 0.4 nM; in experiment [4], 0.6 nM. Besides, the IC50 against KRAS G12C-BRAF complex stood at 13 nM.
On to `CO[C@@H](C)c1ncc(N2CCOCC2)cc1-c1c2c3cc(cc4c3n1CCC4)-c1csc(n1)C[C@H](NC(=O)[C@@H]1C[C@H]1C1CC1)C(=O)N1CCC[C@H](N1)C(=O)OCC(C)(C)C2` (atropisomer, axis not shown; (M)) [Example 37, (1R,2S)-2-cyclopropyl-N-[(7S,13S)-(20M)-20-[2-[(1S)-1-methoxyethyl]-5-morpholino-3-pyridyl]-17,17-dimethyl-8,14-dioxo-15-oxa-4-thia-9,21,30,31-tetrazahexacyclo[23.3.1.1^2,5.1^9,13.0^19,27.0^21,26]hentriaconta-1 (29),2,5 (31),19,25,27-hexaen-7-yl]cyclopropanecarboxamide], for which the IC50 with AGS cells (KRAS G12D) stood at 28.3 nM; in the experiment on SW620 cells (KRAS G12V) it was 2.1 nM; in experiment [1], 7.8 nM; in experiment [2], 9.1 nM; in experiment [3] it was 0.6 nM; in experiment [4], 0.9 nM. At KRAS G12C-BRAF complex, this compound came in with an IC50 of 20.5 nM.
For the compound `CO[C@@H](C)c1ncc(N2CCN(C)CC2)cc1-c1c2c3cc(cc4c3n1CCC4)-c1csc(n1)C[C@H](NC(=O)[C@@H]1C[C@H]1c1cncc(C)c1)C(=O)N1CCC[C@H](N1)C(=O)OCC(C)(C)C2` (atropisomer, axis not shown; (M)) [Example 120, (1R,2R)-N-[(7S,13S)-(20M)-20-[2-[(1S)-1-methoxyethyl]-5-(4-methylpiperazin-1-yl)-3-pyridyl]-17,17-dimethyl-8,14-dioxo-15-oxa-4-thia-9,21,30,31-tetrazahexacyclo[23.3.1.1^2,5.1^9,13.0^19,27.0^21,26]hentriaconta-1 (28),2,5 (31), 19,25 (29),26-hexaen-7-yl]-2-(5-methyl-3-pyridyl)cyclopropanecarboxamide], the IC50 with AGS cells (KRAS G12D) was determined as 2.2 nM; in the experiment on SW620 cells (KRAS G12V), 0.4 nM; in experiment [1], 1.4 nM; in experiment [2], 2.9 nM; in experiment [3], 0.9 nM; in experiment [4] it was 1.1 nM. The compound further showed a 50% inhibitory concentration (IC50) against KRAS G12C-BRAF complex of 20.4 nM.

As a reminder, the IC50 is the midpoint of a concentration-inhibition curve.
